The record followed here is ChEMBL document CHEMBL5523764, “Discovery of NO Donor-Aurovertin Hybrids as Dual Ferroptosis and Apoptosis Inducers for Treating Triple Negative Breast Cancer” (J Med Chem, 2024).

Molecules are shown by their SMILES.

One series concerns MDA-MB-231. The series can be described thus: Antiproliferative activity against human MDA-MB-231 cells assessed as reduction in cell viability incubated for 72 hrs by MTT assay. Type of series: functional, cell-based. The note with it: MDA-MB-231, 72 h. Background: Tetrazolium dyes change colour on reduction, which living cells bring about.
For the next series, the system named is 4T1. The series can be described thus: Antiproliferative activity against mouse 4T1 cells assessed as reduction in cell viability incubated for 72 hrs by MTT assay. Type of series: functional, cell-based. The note with it: 4T1, 72 h.
Series [1] is described as follows: Cytotoxicity against human MCF-10A cells assessed as reduction in cell viability incubated for 72 hrs by MTT assay. Type of series: toxicity, cell-based.
The nature of series [2]: Selectivity index, ratio of IC50 for cytotoxicity against human MCF-10A cells to IC50 for antiproliferative activity against human MDA-MB-231 cells. The note with it: MCF-10A cells versus MDA-MB-231 cells, read-out: Ratio IC50. Format: toxicity, cell-based.

For `CC[C@H]1O[C@@]2(C)[C@H](OC(C)=O)[C@@]1(C)O[C@@H](/C=C/C=C/C=C/c1oc(=O)cc(OC)c1C)[C@@H]2OC(=O)CCC(=O)ONC(=O)CCCCOc1no[n+]([O-])c1S(=O)(=O)c1ccccc1`, the IC50 (usually the concentration at which inhibition is half-maximal) with MDA-MB-231 amounted to 1.23 µM; with 4T1, 2.72 µM. For the same compound, in series [1], the IC50 at 72 h was more than 50 µM. In addition, the selectivity ratio in series [2] is more than 40.

With `CC[C@H]1O[C@@]2(C)[C@H](OC(C)=O)[C@@]1(C)O[C@@H](/C=C/C=C/C=C/c1oc(=O)cc(OC)c1C)[C@@H]2OC(=O)CCCC(=O)OCc1c(-c2ccc(C(F)(F)F)cc2)no[n+]1[O-]`, the IC50 with MDA-MB-231 stood at 4.55 µM; in the series on 4T1, 8.33 µM. In addition, the IC50 at 72 h in series [1] was more than 50 µM. Also, in series [2], the selectivity ratio is more than 10.

Turning to `CC[C@H]1O[C@@]2(C)[C@H](OC(C)=O)[C@@]1(C)O[C@@H](/C=C/C=C/C=C/c1oc(=O)cc(OC)c1C)[C@@H]2OC(=O)CCC(=O)OCC#CCOc1no[n+]([O-])c1S(=O)(=O)c1ccccc1`, the IC50 in the series on MDA-MB-231 came out at 1.23 µM; in the series on 4T1, 2.08 µM. Besides, the IC50 at 72 h in series [1] was more than 50 µM. For the same compound, the selectivity ratio in series [2] was more than 40.

Turning to `CC[C@H]1O[C@@]2(C)[C@H](OC(C)=O)[C@@]1(C)O[C@@H](/C=C/C=C/C=C/c1oc(=O)cc(OC)c1C)[C@@H]2OC(=O)COCCOCCOc1no[n+]([O-])c1S(=O)(=O)c1ccccc1`, the IC50 worked out at 0.5 µM in the series with MDA-MB-231 and 0.77 µM in the series on 4T1. Moreover, the IC50 at 72 h in series [1] is more than 50 µM. The selectivity ratio in series [2] was more than 100.

`CC[C@H]1O[C@@]2(C)[C@H](OC(C)=O)[C@@]1(C)O[C@@H](/C=C/C=C/C=C/c1oc(=O)cc(OC)c1C)[C@@H]2OC(=O)CCC(=O)ONC(=O)CCCOc1no[n+]([O-])c1S(=O)(=O)c1ccccc1`: the IC50 in the series with MDA-MB-231 came out at 0.69 µM; with 4T1, 1.55 µM. Further, the IC50 at 72 h in series [1] is more than 50 µM. In addition, in series [2], the selectivity ratio is more than 72.

As for `CC[C@H]1O[C@@]2(C)[C@H](OC(C)=O)[C@@]1(C)O[C@@H](/C=C/C=C/C=C/c1oc(=O)cc(OC)c1C)[C@@H]2OC(=O)CCCCCOc1no[n+]([O-])c1S(=O)(=O)c1ccccc1`, the IC50 with MDA-MB-231 amounted to 0.99 µM; in the series with 4T1, 2.14 µM. Besides, the IC50 at 72 h in series [1] is more than 50 µM. For the same compound, in series [2], the selectivity ratio is more than 50.

In the case of `CC[C@H]1O[C@@]2(C)[C@H](OC(C)=O)[C@@]1(C)O[C@@H](/C=C/C=C/C=C/c1oc(=O)cc(OC)c1C)[C@@H]2OC(=O)CCCC(=O)OCc1c(-c2ccc(C)cc2)no[n+]1[O-]`, the IC50 was 5.72 µM in the series with MDA-MB-231 and 7.16 µM in the series on 4T1. In addition, the IC50 at 72 h in series [1] was more than 50 µM. In addition, the selectivity ratio in series [2] was more than 8.

Consider `CC[C@H]1O[C@@]2(C)[C@H](OC(C)=O)[C@@]1(C)O[C@@H](/C=C/C=C/C=C/c1oc(=O)cc(OC)c1C)[C@@H]2OC(=O)CCCCCCCCCCCCCOc1no[n+]([O-])c1S(=O)(=O)c1ccccc1`, for which the IC50 in the series with MDA-MB-231 is more than 10 µM.

On to `CC[C@H]1O[C@@]2(C)[C@H](OC(C)=O)[C@@]1(C)O[C@@H](/C=C/C=C/C=C/c1oc(=O)cc(OC)c1C)[C@@H]2OC(=O)CCCC(=O)OCc1c(-c2ccc(OC)cc2)no[n+]1[O-]`, for which the IC50 was 3.87 µM with MDA-MB-231 and 6.72 µM in the series on 4T1. Further, the IC50 at 72 h in series [1] is more than 50 µM. Also, the selectivity ratio in series [2] is more than 13.

As to `CC[C@H]1O[C@@]2(C)[C@H](OC(C)=O)[C@@]1(C)O[C@@H](/C=C/C=C/C=C/c1oc(=O)cc(OC)c1C)[C@H]2OC(=O)CCC(=O)OCCc1ccc(Oc2no[n+]([O-])c2S(=O)(=O)c2ccccc2)cc1`, the IC50 in the series on MDA-MB-231 stood at 3.28 µM; in the series with 4T1 it was 5.56 µM. Besides, the IC50 at 72 h in series [1] is more than 50 µM. In addition, in series [2], the selectivity ratio is more than 15.

Consider `CC[C@H]1O[C@@]2(C)[C@H](OC(C)=O)[C@@]1(C)O[C@@H](/C=C/C=C/C=C/c1oc(=O)cc(OC)c1C)[C@@H]2OC(=O)CCCCCCCOc1no[n+]([O-])c1S(=O)(=O)c1ccccc1`, for which the IC50 in the series with MDA-MB-231 came out at 0.7 µM; with 4T1, 1.23 µM. The IC50 at 72 h in series [1] is more than 50 µM. For the same compound, the selectivity ratio in series [2] is more than 71.
